From patent publication US9375436B2, “Androgen treatment in females” (priority 2004, dated 2016)
“And” between values parts separate entries of the source, which are not always exact repeats. Equal entries are not always repeated.

Assays:
[1] = system: patients with evidence of decreased ovarian reserve; assay: IVF cycles before and after DHEA treatment (Example 2); format: in vivo, human
Protocol: Cumulative embryo score is determined by scoring day 3 embryos and multiplying the number of cells in the embryo by the embryo grade. Embryo grade is a judgment of the embryologist on embryo quality from 1 to 5. Most good embryos are scored 4, with 5 reserved for exceptional embryos. The grade is based on the uniformity of the cells, the color and consistency of the cytoplasm, and the amount of fragmentation. Normal embryos are less than 5% fragmented. A person with three eight cell embryos each with a grade of four would have a cumulative embryos score of 96, the product of 3×8×4.
In another study, thirty (30) patients with evidence of decreased ovarian reserve were given supplemental DHEA 25 mg three times a day, for a total of 75 mg per day, for an average of about 4 months before beginning ovulation induction for IVF. Twelve patients contributed data from cycles both pre-DHEA and post-DHEA, eleven patients contributed data from cycles only pre-DHEA, and seven patients contributed data from cycles only post-DHEA. Patients' response to ovulation induction before DHEA treatment was compared to patients' response to ovulation induction after DHEA treatment with regard to peak estradiol, oocyte production, and embryos transferred and embryo quality.

[2] = system: women with diminished ovarian reserve; assay: AMH as reflection of ovarian reserve after DHEA supplementation (Examples 9 and 12); format: in vivo, human
Protocol: The study is a cross-sectional analysis of 120 consecutive women with DOR in whom AMH levels were evaluated as a reflection of OR. They presented during 2007/8 to our center for initial infertility consultation. First AMH levels obtained were used for INITIAL analysis. Post DHEA initiation, exposure to the supplement ranged from 34 to 119 days (mean 73±27 days). Women with two or more consecutive AMH levels comprised patients in the longitudinal study evaluation of OR after initiation of DHEA supplementation. […]
FSH and estradiol were evaluated by standard enzyme-linked immunoabsorbent assay (ELISA; AIA-600II, Tohso, Tokyo, Japan). […] Theoretical sensitivity, or minimum detection limit, as calculated by interpolation of the mean plus two standard deviations (SD) of eight replicates of the 0 ng/ml MIS/AMH Standard, is 0.006 ng/ml. […]
Data are shown as means±standard deviation (SD) or as raw numbers and percentages. […] Demographic and biochemical data were analyzed with paired or unpaired Student's t-test. […]
The study is a cross-sectional and longitudinal analysis of 120 consecutive women with diminished ovarian reserve, in whom AMH concentrations were evaluated as a reflection of ovarian reserve. […]
FSH and oestradiol were evaluated by standard enzyme-linked immunoabsorbent assay (ELISA; AIA-600II, Tohso, Tokyo, Japan). […]

[3] = Post DHEA, 19 cycles, 16.1 ± 2.4 weeks of DHEA 75 mg per day

## C[C@]12CC[C@H](O)CC1=CC[C@@H]1[C@@H]2CC[C@]2(C)C(=O)CC[C@@H]12 [DHEA, Dehydroepiandrosterone]
[1]; 5 of 45 patients
  patients with continuing pregnancies: 11%
[1]; 7 of 45 patients
  patients using DHEA who have conceived: 16%
[1]; 12 patients
  mean increase in the number of fertilized oocytes (paired comparisons): 1.42±0.63
[1]; Post DHEA, 19 cycles
  Average Day 3 embryo cell count: 4.5 ± 0.5
  Average Day 3 embryo grade: 2.8 ± 0.3
  Fertilized eggs: 4.6 ± 0.8
  Number of Day 3 embryos: 3.2 ± 0.6
  Oocytes: 5.8 ± 1.0
  Peak Estradiol: 1192 ± 904
  Transferred embryos: 2.6 ± 0.4
[1]; [3]
  Cancellation: 5%
  Cancellation (cycles cancelled / cycles): 1 of 19 and 1/19
[1]; Post DHEA, cycles after an average of 4 months of DHEA treatment
  Positive hCG (per transfer cycle): 4/18
[1]; after versus prior to DHEA use
  increase in cumulative embryo score: about 64
[1]; post versus pre DHEA
  improved overall embryo score, model adjusted for oocyte number: 32.8
  increased fertilization, model adjusted for oocyte number: 1.93 fertilized oocytes
  increased numbers of day-three embryos, model adjusted for oocyte number: 1.36 embryos
[2]; 55 women who reached IVF, 13 conceived
  clinical pregnancy rate: 23.64%
[2]; longitudinal evaluation, n=55, baseline before DHEA 0.22±0.22, DHEA 25 mg TID
  AMH at highest measured peak: 0.35 ± 0.03 ng/mL
